Paper PMC7318222, “A Family of Water‐Immiscible, Dipolar Aprotic, Diamide Solvents from Succinic Acid” (Chemsuschem, 2020)

Molecular target: T1, PXR (Homo sapiens, UniProt O75469)
T1 construct: expression construct for the full-length human receptor under investigation; expressed in transfected cells; host or cells: human U2-OS cells (ATCC HTB-96), stably transfected
T1 sequence (O75469 1-434): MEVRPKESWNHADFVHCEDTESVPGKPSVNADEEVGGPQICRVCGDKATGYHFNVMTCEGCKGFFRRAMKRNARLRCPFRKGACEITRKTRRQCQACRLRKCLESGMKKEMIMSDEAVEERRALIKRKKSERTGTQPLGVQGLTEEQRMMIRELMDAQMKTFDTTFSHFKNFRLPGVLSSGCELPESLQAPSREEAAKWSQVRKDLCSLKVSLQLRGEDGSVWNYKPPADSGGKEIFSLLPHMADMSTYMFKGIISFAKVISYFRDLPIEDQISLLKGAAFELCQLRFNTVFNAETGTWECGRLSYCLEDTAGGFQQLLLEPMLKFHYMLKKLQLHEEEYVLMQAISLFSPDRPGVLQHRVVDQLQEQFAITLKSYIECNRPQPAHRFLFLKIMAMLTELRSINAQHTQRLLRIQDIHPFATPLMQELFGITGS
Test: PXR CALUX reporter gene assay
Assay type: cell-based
Parameters: key: –: no effect observed up to the highest test concentration
Details: PC10, 24 h exposure
Description: PXR activation leads to the induction of metabolic enzymes, resulting in enhanced metabolism of a wide range of compounds. […]
Polyarylethersulfone of 55,000 Da were obtained from INGE.BASF, Germany. The CALUX cell lines have been described previously.[1] They are based on human U2-OS cells (ATCC, HTB-96) stably transfected with an expression construct for the full-length human receptor under investigation, and a reporter construct consisting of multimerized responsive elements for the cognate receptor coupled to a minimal promoter element (TATA) and a luciferase gene. Cells were maintained as described previously,[2] using cell culture media and supplements from Fisher Scientific as described in the experimental procedures section. […]
In vitro reporter gene assays
The automated CALUX assays were carried out similarly as described earlier,[12] with some adaptations. In brief, the assay was performed in CO2 independent medium (Fisher Scientific, […]
supplement (Fisher Scientific, 11574466), 10 U/mL penicillin and 10 µg/mL streptomycin. A cell suspension in assay medium was made of 1 × 10^5cells/mL, and white 384-wells plates were seeded with 30 µl cell suspension/well. After 24 h, exposure medium was prepared. A dilution series in 0.5log unit increments of each test compound (in DMSO) was added to a 96-wells plate containing assay medium (2% v/v). Of this exposure mixture, 30 µl was added to the assay plates containing the CALUX cells, resulting in a final DMSO concentration of 1%. Additionally, DMSO blanks and a full dose response curve of the relevant reference compound were included on each plate. All samples were tested in triplicate. The preparation of the compound dilution series as well as the exposure of the cells were performed on a Hamilton StarLET liquid handling robot coupled to a Cytomat incubator.
Directly after exposure, plates were sealed with non-breathing plate seals (Plate sealer, easy seal transparent; Greiner-Bio-One, 676001). After 24 h the exposure medium was removed using an EL406 washer-dispenser (BioTek) and 10 µl/well triton lysisbuffer was added by the EL406.
Subsequently, the luciferase signal was measured in a luminometer (InfinitePro coupled to a Connect Stacker, both TECAN). In order to be able to detect receptor antagonism, several assays were also performed in antagonistic mode. The assay procedure was as described above, with the only exception that the EC50 concentration of the reference agonist was present during the exposure.
The luminometer data was analysed as follows; the average of the triplicate wells was determined, and the average blank (DMSO) value was subtracted. For receptor-based assays the maximum response elicited by the reference compound was set to 100% (full receptor- or pathway activation), and the other values were scaled accordingly. GraphPad Prism was used to fit a sigmoidal curve through the data (four parameters, variable slope). […] For antagonist- and cytotoxicity experiments, PC20 values were determined instead, which was defined as the concentration where the test compound causes a 20% decrease in the basal signal, which was […]
curve, the signal induction above background (DMSO) was determined, and the concentration where the compound elicited a 1.5-fold increase above background was used as LEC.

Structure (SMILES)	LEC PXR
CCCCN(CCCC)C(=O)CCC(=O)N(CCCC)CCCC [TBSA, N,N,N′,N′‐tetrabutylsuccindiamide]	−6.1 Log M
CCCCN(CC)C(=O)CCC(=O)N(CC)CCCC [EBSA, N,N′‐diethyl‐N,N′‐dibutylsuccindiamide]	−5.0 Log M
CN1CCCC1=O [NMP, N‐methyl‐2‐pyrrolidone, reference compound]	–
CCCCN(C)C(=O)CCC(=O)N(C)CCCC [MBSA, N,N′‐dimethyl‐N,N′‐dibutylsuccindiamide]	−3.9 Log M
CCCCN1CCCC1=O [NBP, N‐Butylpyrrolidinone, reference compound]	−3.2 Log M
